According to US20050192281A1, “Nitrone compounds, prodrugs and pharmaceuticals compositons of the same to treat human disorders” (priority 2003, published 2005):
Where a name gives a salt, the structure may show the parent alone.

Test: Free radical-scavenging/antioxidant assay (DPPH)
Type: biochemical
Conditions: 50 μM DPPH in 80% methanol, absorbance at 520 nm, 24 h time point (steady state)
Protocol: Nitrone compounds of the present invention were tested for their free-radical scavenging/antioxidant activity in an in vitro assay that was accepted by those skilled in the art as a model for conditions involving the generation of free radicals. The assay was based on a reaction between a free-radical donor, 2,2-diphenyl-1-picrylhydrazyl (DPPH), and a radical scavenger/antioxidant to be tested for free-radical scavenging activity. Upon donation of the free-radical electron to the purported radical scavenger, the peak vwasible absorbance of DPPH (515-520 nm) decreases so that optical density readings at thwas part of the vwasual spectrum reflect the progression of the following reaction: DPPH•+AH →DPPH—H+A• where AH was a hypothetical radical scavenger/antioxidant. The assay was based on a protocol originally detailed in Brand-Williams, W. et al., 1995, Use of a Free Radical Method to Evaluate Antioxidant Activity, Lebensm. Wwass. Technol., 28:25-30, with further modifications described in L. R. Fukumoto and G. Mazza, 2000, Assessing Antioxidant and Prooxidant Activities of Phenolic Compounds, J. Agric. Food Chem., 48:3597-3604.
The antioxidant assay was performed using Perkin-Elmer 96-well, clear-bottom, black-wall plates (ordered from E & K Scientific Products) and a Tecan Safire absorbance plate reader. The positive controls were Trolox (6-hydroxy-2,5,7,8-tetramethylchromane-2-carboxylic acid, Sigma-Aldrich), BHA (2(3)-tert-butylhydroquinone monomethyl ether, Sigma-Aldrich), PBN (C-(phenyl)-N-(tert-butyl)nitrone, Sigma-Aldrich) and S-PBN (C-(2-sulfophenyl)-N-(tert-butyl)nitrone, sodium salt, prepwered according to E. G. Janzen and R. V. Shetty, 1979, Tetrahedron Lett., 35: 3229-32), and the negative control (i.e., vehicle) was DMSO. In brief, 2 μL of 100×DMSO stock of the desired final concentration of each control or nitrone compound to be tested in the same batch was added to a separate well. To each well was then added 198 μL of a freshly made 50 μM DPPH (Sigma-Aldrich) solution in 80% methanol using a multi-channel pipette. The absorbance was immediately read on the plate reader at 520 nm and thereafter read periodically to assess kinetics until all reactions reached completion (i.e., steady state). Since the steady-state point was 24 h, the assay results were shown from the 24 h time point. The absorbance at 520 nm (OD) was plotted versus the concentrations of the controls and nitrone compounds to assess dose-response and interpolate the EC50 values of the controls and test compounds.

| Structure (SMILES) | EC50 |
| --- | --- |
| COc1ccc(O)c(C(C)(C)C)c1 [BHA, 2(3)-tert-butylhydroquinone monomethyl ether, reference compound] | 10 to 50 µM |
| CC(C)(C)/[N+]([O-])=C/COc1ccccc1 [Example 1, N-tert-Butyl-C-(phenoxymethyl)nitrone] | 10 to 50 µM |
| [O-]/[N+](=C\COc1ccccc1)C1CCCCC1 [Example 2, N-Cyclohexyl-C-(phenoxymethyl)nitrone] | 50 to 100 µM |
| [O-]/[N+](=C\COc1ccccc1)Cc1ccccc1 [Example 3, N-Benzyl-C-(phenoxymethyl)nitrone] | 10 to 50 µM |
| COc1ccc(OC/C=[N+](\[O-])C(C)(C)C)cc1 [Example 4, N-tert-Butyl-C-[(4-methoxy-phenoxy)methyl]nitrone] | 10 to 50 µM |
| COc1ccc(OC/C=[N+](\[O-])C2CCCCC2)cc1 [Example 5, N-Cyclohexyl-C-[(4-methoxy-phenoxy)methyl]nitrone] | < 10 µM |
| COc1ccc(OC/C=[N+](\[O-])Cc2ccccc2)cc1 [Example 6, N-Benzyl-C-[(4-methoxy-phenoxy)methyl]nitrone] | < 10 µM |
| Cc1ccc(C(C)C)c(OC/C=[N+](\[O-])C(C)(C)C)c1 [Example 7, N-tert-Butyl-C-[(2-isopropyl-5-methyl-phenoxy)methyl]nitrone] | 50 to 100 µM |
| Cc1ccc(C(C)C)c(OC/C=[N+](\[O-])C2CCCCC2)c1 [Example 8, N-Cyclohexyl-C-[(2-isopropyl-5-methyl-phenoxy)methyl]nitrone] | 10 to 50 µM |
| Cc1ccc(C(C)C)c(OC/C=[N+](\[O-])Cc2ccccc2)c1 [Example 9, N-Benzyl-C-[(2-isopropyl-5-methyl-phenoxy)methyl]nitrone] | 50 to 100 µM |
| Cc1ccc(SC/C=[N+](\[O-])C(C)(C)C)cc1 [Example 10, N-tert-Butyl-C-[(4-methyl-thiophenoxy)methyl]nitrone] | 10 to 50 µM |
| CC(C)(C)/[N+]([O-])=C/COc1ccccn1 [Example 11, N-tert-Butyl-C-(pyridin-2-yloxy)methyl nitrone] | 10 to 50 µM |
| [O-]/[N+](=C\COc1ccccn1)C1CCCCC1 [Example 12, N-Cyclohexyl-C-(pyridin-2-yloxy)methyl nitrone] | < 10 µM |
| [O-]/[N+](=C\COc1ccccn1)Cc1ccccc1 [Example 13, N-Benzyl-C-(pyridin-2-yloxy)methyl nitrone] | < 10 µM |
| CC(C)(C)/[N+]([O-])=C/COc1nccc2ccccc12 [Example 14] | 50 to 100 µM |
| [O-]/[N+](=C\COCc1ccccc1)C1CCCCC1 [Example 15, N-Cyclohexyl-C-(benzyloxy)methyl nitrone] | 10 to 50 µM |
| [O-]/[N+](=C\COCc1ccccc1)Cc1ccccc1 [Example 16, N-Benzyl-C-(benzyloxy)methyl nitrone] | 50 to 100 µM |
| CC(C)(C)/[N+]([O-])=C/CCOc1ccccc1 [Example 17, N-tert-Butyl-C-2-(phenoxy)ethyl nitrone] | 10 to 50 µM |
| [O-]/[N+](=C\CCOc1ccccc1)C1CCCCC1 [Example 18, N-Cyclohexyl-C-2-(phenoxy)ethyl nitrone] | > 1000 µM |
| [O-]/[N+](=C\CCOc1ccccc1)Cc1ccccc1 [Example 19, N-Benzyl-C-2-(phenoxy)ethyl nitrone] | 100 to 1000 µM |
| CC(C)(C)/[N+]([O-])=C/CCSc1ccccc1 [Example 20, N-tert-Butyl-C-2-(phenylsulfanyl)ethyl nitrone] | < 10 µM |
| [O-]/[N+](=C\CCSc1ccccc1)Cc1ccccc1 [Example 21, N-Benzyl-C-2-(phenylsulfanyl)ethyl nitrone] | 10 to 50 µM |
| CC(C/C=[N+](\[O-])C(C)(C)C)Sc1ccccc1 (stereo not drawn) [Example 22, N-tert-Butyl-C-2-(phenylsulfanyl)propyl nitrone] | < 10 µM |
| CC(C/C=[N+](\[O-])C1CCCCC1)Sc1ccccc1 (stereo not drawn) [Example 23, N-Cyclohexyl-C-2-(phenylsulfanyl)propyl nitrone] | 10 to 50 µM |
| CC(C/C=[N+](\[O-])Cc1ccccc1)Sc1ccccc1 (stereo not drawn) [Example 24, N-Benzyl-C-2-(phenylsulfanyl)propyl nitrone] | < 10 µM |
| CC(C)(C)/[N+]([O-])=C/CCOc1ccccn1 [Example 25, N-tert-Butyl-C-2-(pyridin-2-yloxy)ethyl nitrone] | 10 to 50 µM |
| CC(C)(C)/[N+]([O-])=C/COCc1ccccc1 [Example 26, N-tert-Butyl-C-(benzyloxy)methyl nitrone] | 10 to 50 µM |
| CC(C)(C)/[N+]([O-])=C/c1ccccc1 [PBN, C-(phenyl)-N-(tert-butyl)nitrone, reference compound] | > 1000 µM |
| CC(C)(C)/[N+]([O-])=C/c1ccccc1S(=O)(=O)O [SPBN, C-(2-sulfophenyl)-N-(tert-butyl)nitrone, sodium salt, reference compound] | > 1000 µM |
| Cc1c(C)c2c(c(C)c1O)CCC(C)(C(=O)O)O2 (stereo not drawn) [Trolox, 6-hydroxy-2,5,7,8-tetramethylchromane-2-carboxylic acid, reference compound] | < 10 µM |
